Patent US20190350940A1, “PLATINUM COMPOUNDS, COMPOSITIONS, AND USES THEREOF” (priority 2015, published 2019)

Key:
CYP2C8 = CYP2C8 (Homo sapiens, UniProt P10632); assay: CYP inhibition, 2C8; assay type: in vitro ADME
[1] = system: MIA Paca-2 human pancreatic adenocarcinoma; assay: MIA Paca-2 pancreatic xenograft model; assay type: in vivo, mouse; conditions: mouse, in vivo, 10 mg/kg
female Beagle dogs = assay: Cardiovascular and respiratory effects in Beagle dogs (Compound 8-TX-005); assay type: in vivo, dog
Protocol: The cardiovascular and respiratory effects of Compound 8 administered IV were evaluated in Beagle dogs (Compound 8-TX-005).

hERG = target: T1, hERG (Homo sapiens, UniProt Q12809); assay: Binding to membrane preparations of hERG using a radiolabeled antagonist
T1 construct: host or cells: membrane preparations
T1 sequence (Q12809 whole entry): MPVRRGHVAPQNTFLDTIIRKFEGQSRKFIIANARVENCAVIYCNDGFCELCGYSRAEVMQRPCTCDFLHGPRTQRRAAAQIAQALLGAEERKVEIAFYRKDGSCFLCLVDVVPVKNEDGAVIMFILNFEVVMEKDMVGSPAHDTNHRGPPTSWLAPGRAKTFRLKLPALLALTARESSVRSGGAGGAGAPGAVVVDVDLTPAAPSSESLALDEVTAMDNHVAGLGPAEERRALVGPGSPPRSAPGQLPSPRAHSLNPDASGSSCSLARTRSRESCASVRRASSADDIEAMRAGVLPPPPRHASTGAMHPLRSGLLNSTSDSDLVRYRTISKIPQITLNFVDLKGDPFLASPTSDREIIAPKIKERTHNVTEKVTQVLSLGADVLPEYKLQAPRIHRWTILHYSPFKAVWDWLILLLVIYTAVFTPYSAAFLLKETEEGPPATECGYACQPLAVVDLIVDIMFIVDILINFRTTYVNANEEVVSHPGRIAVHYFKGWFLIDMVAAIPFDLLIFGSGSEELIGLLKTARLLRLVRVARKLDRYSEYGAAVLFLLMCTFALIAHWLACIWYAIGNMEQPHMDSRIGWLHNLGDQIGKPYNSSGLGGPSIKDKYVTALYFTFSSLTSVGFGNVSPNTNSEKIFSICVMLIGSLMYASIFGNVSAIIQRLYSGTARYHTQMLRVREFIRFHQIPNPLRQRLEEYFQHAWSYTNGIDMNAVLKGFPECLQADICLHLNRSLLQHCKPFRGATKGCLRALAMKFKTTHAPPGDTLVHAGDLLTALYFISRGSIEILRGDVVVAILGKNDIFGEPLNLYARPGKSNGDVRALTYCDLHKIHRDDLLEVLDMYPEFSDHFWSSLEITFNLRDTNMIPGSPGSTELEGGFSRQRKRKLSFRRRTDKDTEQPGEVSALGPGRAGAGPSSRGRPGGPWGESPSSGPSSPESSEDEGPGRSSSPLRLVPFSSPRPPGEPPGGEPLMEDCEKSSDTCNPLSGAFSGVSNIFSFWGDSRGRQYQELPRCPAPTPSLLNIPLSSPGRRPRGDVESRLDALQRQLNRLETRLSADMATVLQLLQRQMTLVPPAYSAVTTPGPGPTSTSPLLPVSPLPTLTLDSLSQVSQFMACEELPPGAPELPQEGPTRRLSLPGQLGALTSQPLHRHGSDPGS
Protocol: An in vitro evaluation of the binding of Compound 8 to membrane preparations of hERG using a radiolabeled antagonist was performed.

CYP2D6 = CYP2D6 (Homo sapiens, UniProt P10635); assay: CYP inhibition, 2D6; assay type: in vitro ADME
CYP2D6, sequence (P10635 whole entry): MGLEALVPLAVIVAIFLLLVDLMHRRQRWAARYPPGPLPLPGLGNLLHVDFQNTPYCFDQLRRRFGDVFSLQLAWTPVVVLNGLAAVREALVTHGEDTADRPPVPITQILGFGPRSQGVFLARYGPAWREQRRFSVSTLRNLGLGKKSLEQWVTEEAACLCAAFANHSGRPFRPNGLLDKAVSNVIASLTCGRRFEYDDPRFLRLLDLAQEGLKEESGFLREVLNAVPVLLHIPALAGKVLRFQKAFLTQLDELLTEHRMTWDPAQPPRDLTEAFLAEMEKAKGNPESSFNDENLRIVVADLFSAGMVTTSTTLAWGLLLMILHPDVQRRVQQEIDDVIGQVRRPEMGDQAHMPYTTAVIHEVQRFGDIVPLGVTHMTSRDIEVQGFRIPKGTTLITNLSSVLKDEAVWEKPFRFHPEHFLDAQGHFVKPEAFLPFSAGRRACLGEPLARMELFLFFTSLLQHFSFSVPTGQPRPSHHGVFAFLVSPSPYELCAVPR

[2] = pH stability: acidifying agents versus citrate buffered saline; assay type: physicochemical; conditions: room temperature
Protocol: In order to determine whether a buffer would be required to maintain stability, two acidifying agents, hydrochloric acid and citric acid, were evaluated with respect to a control formulation in 5 mM citrate buffered saline. All vehicles were brought to a pH of 4 in saline and each formulation was made at 1 mg/ml concentration in each vehicle.

[3] = Temperature effects: mock manufacturing process; assay type: physicochemical; conditions: after 24 hrs
Protocol: In order to determine the effect of both temperature and light on the formation of the two main degradation products, mock manufacturing processes and mock clinical dilution studies were conducted. The mock process was simulated by formulating and holding the Compound 8 drug product at room temperature or under cold conditions (e.g. ice bath) for discreet amounts of time that would simulate the large scale manufacturing process. Once the samples went through the mock manufacturing process, they were stored at −20° C., as a frozen solution, and then thawed as they would be in the clinic prior to administration. For the mock clinical dilution study, each solution was diluted in saline, at the lowest dilution factor expected in the clinic. Then the diluted formulations were stored in syringes at room temperature and then assayed for potency and total impurities (from both procedures) at the end of the day.
For the mock manufacturing process, the room temperature samples were formulated and stored at room temperature for a total of 8 hrs and then refrigerated overnight. In contrast, the cold samples were formulated on ice, stored in the 2-8° C. for a total of 8 hrs, and at the end of the day frozen to −20° C.

[4] = pH stability: buffering capacity (5 mM versus 100 mM citrate); assay type: physicochemical; conditions: 5 mM versus 100 mM citrate saline pH about 4; impurity profile over 10 hr
Protocol: In order to assess the effect of the buffering capacity, formulations were made with 5 mM and 100 mM citrate saline pH about 4. Two formulations were made in 100 mM citrate, one at 0.1 mg/ml and the other at 1 mg/ml. A third formulation of 5 mM citrate at 1 mg/ml was made for comparison to determine whether increasing the buffering capacity improved the stability of the formulation.

CYP2C9 = CYP2C9 (Homo sapiens, UniProt P11712); assay: CYP inhibition, 2C9; assay type: in vitro ADME
CYP2C9, sequence (P11712 whole entry): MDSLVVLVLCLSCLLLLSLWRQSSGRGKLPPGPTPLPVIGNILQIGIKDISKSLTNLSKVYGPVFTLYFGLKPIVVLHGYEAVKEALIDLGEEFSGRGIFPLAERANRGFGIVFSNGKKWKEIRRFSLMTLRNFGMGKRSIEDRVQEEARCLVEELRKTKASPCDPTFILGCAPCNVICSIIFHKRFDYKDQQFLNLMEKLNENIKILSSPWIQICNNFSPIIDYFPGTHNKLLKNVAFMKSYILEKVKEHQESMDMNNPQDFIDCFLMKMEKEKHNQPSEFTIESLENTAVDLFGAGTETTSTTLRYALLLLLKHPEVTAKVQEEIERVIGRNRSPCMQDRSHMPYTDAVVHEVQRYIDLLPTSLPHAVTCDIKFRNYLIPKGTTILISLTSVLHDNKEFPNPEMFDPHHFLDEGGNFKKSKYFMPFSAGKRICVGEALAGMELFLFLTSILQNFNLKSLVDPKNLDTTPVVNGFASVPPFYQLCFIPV

physchem = assay type: physicochemical; conditions: for solubility at 1 hr: pH 4, aqueous buffer, thermodynamic from solid, Saturated solubility
Protocol: The formulations were prepared by stirring at room temperature for 1 hr. They were protected from light to minimize the formation of the amine product (Impurity 1) during the formulation.
The drug product process begins by preparation of a chilled, solution of 2.5% mannitol and 5 mM citrate buffer (pH about 4-5) solution to which Compound 8 drug substance is added at concentration of 5 mg/mL. […] The bulk solution is filter (0.2 μm) sterilized, aseptically filled into vials, and lyophilized. To minimize Compound 8 degradation, the bulk solution is maintained chilled and protected from light during processing. Lyophilizing Compound 8 as a dry powder was selected as the best means to minimize hydrolysis during storage. Finally, filter sterilization was chosen as the most benign means to sterilize the drug product.

CYP2C19 = CYP2C19 (Homo sapiens, UniProt P33261); assay: CYP inhibition, 2C19; assay type: in vitro ADME
CYP2C19, sequence (P33261 whole entry): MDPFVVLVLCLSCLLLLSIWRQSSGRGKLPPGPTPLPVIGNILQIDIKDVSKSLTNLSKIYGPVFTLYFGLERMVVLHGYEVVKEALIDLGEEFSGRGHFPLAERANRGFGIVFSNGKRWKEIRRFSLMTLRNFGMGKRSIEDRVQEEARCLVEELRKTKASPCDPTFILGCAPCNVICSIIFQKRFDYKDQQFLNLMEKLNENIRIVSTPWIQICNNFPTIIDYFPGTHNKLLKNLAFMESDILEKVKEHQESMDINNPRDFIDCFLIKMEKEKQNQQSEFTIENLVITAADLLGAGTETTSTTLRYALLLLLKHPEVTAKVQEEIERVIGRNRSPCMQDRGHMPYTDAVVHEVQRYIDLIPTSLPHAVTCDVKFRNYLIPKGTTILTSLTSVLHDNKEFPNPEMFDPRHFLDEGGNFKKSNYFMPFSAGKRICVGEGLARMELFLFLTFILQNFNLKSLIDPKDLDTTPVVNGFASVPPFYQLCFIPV

NCI-H520 human NSCLC = assay: NCI-H520 lung xenograft model; assay type: in vivo, mouse; conditions: mouse, in vivo
Protocol: The effect of Compound 8 also was evaluated in the NCI-H520 human NSCLC nude mouse (female CrTac:NCr-Foxn1^nu) xenograft model. […] All treatments were statistically significant compared to vehicle (p<0.0001).

rat plasma = assay: In vitro plasma protein binding, rat plasma (Compound 8-DMPK-008); assay type: in vitro ADME; conditions: incubation 10 minutes at 37° C.
Calu-6 human NSCLC = assay: Calu-6 lung xenograft model; assay type: in vivo, mouse; conditions: mouse, in vivo
Protocol: The effect of Compound 8 was evaluated in the Calu-6 human NSCLC nude mouse (female Crl:NU(NCr)-Foxn1^nu) xenograft model.

[5] = Total plasma and plasma ultrafiltrate platinum pharmacokinetics in mouse; assay type: in vivo
Protocol: Nonclinical studies were performed to evaluate the PK of platinum in plasma after IV administration of Compound 8 in the mouse, rat, and dog. The analyses included platinum levels both in total plasma as well as plasma ultrafiltrate.
Compound 8 was administered in 2 different formulations in mice. The formulation used in pharmacology studies was 5% dimethyl sulfoxide (DMSO)/10% Solutol/Saline, and the formulation used in PK studies was 5 mM citrate pH about 4; this latter formulation is that used in GLP toxicology studies in the rat and is the human clinical formulation.

[6] = formulated under cold conditions

CYP2C8, sequence (P10632 whole entry): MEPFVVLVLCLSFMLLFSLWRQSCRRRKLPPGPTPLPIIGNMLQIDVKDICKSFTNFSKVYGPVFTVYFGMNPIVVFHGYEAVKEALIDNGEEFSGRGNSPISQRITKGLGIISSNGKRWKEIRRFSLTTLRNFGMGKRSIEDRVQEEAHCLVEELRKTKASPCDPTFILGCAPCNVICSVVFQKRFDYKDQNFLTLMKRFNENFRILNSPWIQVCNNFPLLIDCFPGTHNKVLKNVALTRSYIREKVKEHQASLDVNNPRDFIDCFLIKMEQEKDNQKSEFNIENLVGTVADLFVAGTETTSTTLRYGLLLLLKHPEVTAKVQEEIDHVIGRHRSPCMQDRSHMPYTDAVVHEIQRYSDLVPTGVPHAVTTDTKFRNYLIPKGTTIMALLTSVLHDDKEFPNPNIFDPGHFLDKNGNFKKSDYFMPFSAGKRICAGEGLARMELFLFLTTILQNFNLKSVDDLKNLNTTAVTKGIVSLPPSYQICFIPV

Structure (SMILES): CC(=O)[O][Pt]([NH2])([NH2])([Cl])([Cl])[O]C(=O)NCCCCCN1C(=O)C=CC1=O [Compound 8]
- IC50 (CYP2C8): 680 nM
- Mean maximal BW loss [1]: 3.7%
- Treatment-related adverse effects [1]: No treatment-related adverse effects
- Increases in blood pressure (slight, non-dose-dependent) (female Beagle dogs; 6 and 10 mg/kg, between 6 and 12 hours following treatment): 9-16 % above controls
- Doses with no observable adverse effects on cardiovascular or pulmonary function (female Beagle dogs; IV, female Beagle dogs): ≤ 10 mg/kg
- Doses with no observable adverse effects on cardiovascular or pulmonary function, as HED (female Beagle dogs; IV, female Beagle dogs): ≤ 200 mg/m^2
- Test article-related clinical observations (female Beagle dogs; all animals, approximately 24 hours post-dose): observations of vomitus
- Mortality, body temperature, heart rate, ECG parameters (PR, RR, QRS, QT, QTc), respiratory rate (female Beagle dogs; single IV injection 6 and 10 mg/kg, female Beagle dogs): did not produce mortality or changes
- hERG binding finding (hERG; 3 uM, conjugated to human serum albumin): no evidence for significant cardiovascular toxicity
- hERG binding finding (hERG; 10 uM, unconjugated to human serum albumin): no evidence for significant cardiovascular toxicity
- IC50 (CYP2D6): 720 nM
- Impurity 2 formation ([2]; 1 mg/ml in 5 mM citrate buffered saline pH 4, 24 hr): inhibits the formation of Impurity 2
- Impurity 2 formation ([2]; 1 mg/ml in saline brought to pH 4 with hydrochloric acid, after 24 hrs): over 2 % by area
- Formation of Impurity 1 ([3]; formulated at room temperature): ~0.8%
- Formation of Impurity2 ([3]; formulated at room temperature): ~0.3%
- Formation of Impurity 1 [3, 6]: < 0.3%
- Formation of Impurity2 [3, 6]: ~0.1%
- Effect of buffering capacity on stability [4]: little effect
- IC50 (CYP2C9): 950 nM
- solubility at 1 hr (physchem; overall estimate): ~9 mg/mL
- solubility at 1 hr (physchem; range of five different lots): 8 to 23 mg/mL
- solubility (physchem; pH 4.5, aqueous buffer, Saturated solubility of the drug substance): 16 to 17 mg/mL
- IC50 (CYP2C19): 2720 nM
- Mean maximal BW loss (NCI-H520 human NSCLC; 10 mg/kg): 2.7%
- Mean maximal BW loss (NCI-H520 human NSCLC; 15 mg/kg): 11%
- Protein bound (rat plasma): > 99%
- Mean maximal BW loss (Calu-6 human NSCLC; 10 mg/kg): 0.9%
- Mean maximal BW loss (Calu-6 human NSCLC; 15 mg/kg): 3.2%
- Dose (MTD) [5]: 41.8 (MTD) mg/m^2
- Mean difference of AUC(0-48h) between the 2 formulations ([5]; in vivo): 5%
- Portion of platinum in circulation free in the ultrafiltrate ([5]; in vivo): < 1%
- Ultrafiltrate platinum to total ratio at Cmax ([5]; in vivo): 0.06
- Ultrafiltrate to total AUC ratio ([5]; in vivo): 0.0056
- Plasma free platinum AUC ([5]; in vivo, iv): 20.6 µM·h
- Plasma free platinum Cmax ([5]; in vivo, iv): 15.9 µM
